Source: patent publication US10212937B2, “Microbicidal aqueous solutions including a monochloramine and a peracid, and methods of using the same” (priority 2015, dated 2019)

Columns and labels:
Pseudomonas aeruginosa = assay: Microbicidal evaluation in nutrient broth, lowest concentration completely preventing growth, Kull synergism calculation; type: cell-based; details: contact time 24 hours, 37° C., approx. 10^6 cfu/ml, complete prevention of growth
Procedure: (§1) Nutrient broth (2.5 g/liter of deionized water) was prepared and dispensed in 5 ml amounts into test tubes and autoclaved for 20 minutes at 121° C. The biocides were added to the test tubes in the desired concentrations, and then 100 microliters of a 24-hour grown suspension of Pseudomonas aeruginosa or Enterobacter aerogenes cells were added to the respective test tubes to give a final count of approximately 10^6 cfu/ml and incubated at 37° C. at the indicated contact times.
(§2) End points for the various mixtures were then compared with the end points for the pure active ingredients alone in concomitantly prepared flasks or test tubes.
(§3) which produced an end point.
(§4) Qb=Lowest concentration of compound B in parts per million, acting alone,
(§5) QA=Lowest concentration of compound A in parts per million, in the mixture,
(§6) QB=Lowest concentration of compound B in parts per million, in the mixture,
(§7) When the sum of QA/Qa and QB/Qb is greater than one, antagonism is indicated. When the sum is equal to one, additivity is indicated. When the sum is less than one, synergism exists.
Contact time was 24 hours. The MCA and peracetic acid were obtained in the same manner as Example 1.

Enterobacter aerogenes = assay: as above; type: cell-based; details: contact time 15 hours
Procedure: as §1, §2, §3, §4, §5, §6, §7
Contact time was 15 hours. The MCA was obtained by combinations of ammonium sulfate in the form of Oxamine 6150 or Busan 1215 (all from Buckman Laboratories, Memphis, Tenn.) and the oxidant, Bulab 6004 (from Buckman Laboratories). The peracetic acid was from Sigma-Aldrich (32 wt. % in dilute acetic acid) which was diluted in deionized water to desired concentration range prior to adding it to the test systems.

[1] = 37° C., approx. 10^6 cfu/ml, complete prevention of growth

## NCl [monochloramine]
Pseudomonas aeruginosa
  Qb, lowest concentration of compound B acting alone which produced an end point: 50 ppm
Enterobacter aerogenes
  QB/Qb: 0.5
Enterobacter aerogenes; [1]
  Qb, lowest concentration of compound B acting alone which produced an end point: 100 ppm

## CC(=O)OO [peracetic acid]
Pseudomonas aeruginosa
  Qa, concentration of compound A acting alone which produced an end point: 10 ppm
Enterobacter aerogenes; [1]
  Qa, concentration of compound A acting alone which produced an end point: 25.0 ppm
